Measured values from patent US20160281089A1, “PREVENTION OF VIRAL INFECTIVITY” (priority 2005, published 2016).

Assays:
[1] = target: T1, recombinant M-MuLV RT/RNase H (Moloney murine leukemia virus, UniProt P03355); assay: In vitro cleavage of synthetic SFFV PPT-RNA with recombinant M-MuLV RT/RNase H; type: biochemical; conditions: 5'-end-labelled RNA
T1 construct: The 80 kDa RT/RNase H of M-MuLV is a monomer
Description: To test, whether ODN M would have similar effects as ODN A, we tested the ability of ODN M to induce cleavage of SFFV RNA in the presence of the recombinant M-MuLV RT/RNase H. We used synthetic 5′-end-labelled RNA, which contains the extended PPT of SFFV and sequences of the viral genome dose to the PPT. […] M-MuLV RT/RNase H induced ODN M-mediated cleavage in a dose-dependent manner (FIG. 8b left). The cleavage induced by the various ODNs leads to degradation of the SFFV PPT-RNA in vitro as shown (FIG. 8b right). […] We concluded that SFFV could serve as model for HIV.
a. 5′-labeled synthetic PPT-RNAs of SFFV (left) and HIV-1 (right) were annealed and cleaved with recombinant M-MuLV or HIV-1 RT/RNase H in the absence or presence of ODN M or ODN A. Cleavage products were analyzed by 8M urea-containing PAGE (6%). Filled arrowheads correspond to the specific RT/RNase H cleavage sites, open arrowheads to additional cleavage sites. RNase T1-digested RNA (RNase T1) served as marker. M indicates the Decade Marker.
b. Titration of recombinant M-MuLV RT/RNase H in the presence of ODN M (50 nM) and 5′-labeled SFFV-PPT-RNA. […] 5′-labeled SFFV-PPT-RNA or control RNA without PPT (Con.) were hybridized with the ODNs and treated with and without MuLV RT/RNase H for in vitro cleavage as indicated and analyzed by 8M urea-containing PAGE (10%, right).

SFFV virions = assay: Permeabilized cell-free SFFV virions incubated with ODNs, undigested RNA by real-time PCR; type: biochemical; conditions: 5 μM ODN, compared to control ODNs or asPPT
Procedure: In order to further characterize antiviral effects of ODNs, we tested ODN M, asPPT and structural analogs of ODN M in SFFV virions, which contain endogenous RT/RNase H and have an appropriate secondary structure of the RNA. Permeabilized virions were incubated with ODNs, viral RNA was then purified, reverse transcribed and the amount of undigested RNA was quantified by real-time PCR using a set of primers harboring the PPT region of the SFFV genome. […] We observed differences in the antiviral activities between various ODNs. […] Thus, the presence as well as the sequences of both strands of the ODN contributed to the antiviral effect. We noticed previously that the second arm of the ODN is more important intracellularly than in vitro.
a. Cell-free SFFV virions (1×10^3 FFU in 20 μl) were permeabilized and incubated with the indicated ODNs (5 μM). RNA was extracted three days post-treatment and analyzed by quantitative real-time RT-PCR shown as bars (top) and RT-PCR shown as amplifications products on a 1.5% agarose gel (bottom).

RT/RNaseH [2] = target: T2, RT/RNaseH (Human immunodeficiency virus type 1 group M subtype B, UniProt P04585); assay: Primer extension assay on synthetic RNA2; type: biochemical, HIV-1; parameters: the HIV RT/RNase H is a heterodimer of p66 and p51 with and without RNase H; conditions: synthetic RNA2, FIG. 2B
Description: (§1) To test whether an ODN-mediated activity would preferentially occur at the PPT, we analysed ODNs targeted to the extended PPT (ODN A) or to a region outside of the PPT (ODN CO and an external antisense oligodeoxynucleotide asEXT) in vitro. We used RNA2, which contains the PPT and the binding sites for ODN A, asEXT and ODN CO. […] Indeed, in the reaction mixture containing both ODN A and asEXT primers, extension products, predominantly synthesized by the RT/RNaseH, started with ODN A and not asEXT (FIG. 2B). […] Thus, the ability of the ODN A to mediate RT/RNaseH-dependent cleavage of the viral RNA is PPT-dependent.
(A) Cleavage assay. 10 nM of in vitro transcribed 5′-labeled RNA was hybridized with 10, 100 and 1000 nM of ODN A and incubated in the presence of RT/RNaseH. The cleavage products were analyzed by denaturing PAGE as described in Materials and methods. (B). Primer extension assay. Synthetic RNA2 was hybridized with ODN A, antisense primer (asEXT) or both primers combined, and the primer extension was performed as described in Materials and Methods. Elongation products were analysed by 8 M urea/10% PAGE. (C) Cleavage assay. RNA/ODN hybrids, obtained using 10 nM of RNA2 and 10 nM of ODN A, asPPT or ODN CO were incubated with RT/RNaseH and cleavage products were analyzed by denaturing PAGE as described in Materials and methods. […]

RT/RNaseH [3] = target: T2, RT/RNaseH; assay: RNase H cleavage assay with synthetic 5'-end-labelled RNA and RT/RNaseH; type: biochemical, HIV-1; parameters: the HIV RT/RNase H is a heterodimer of p66 and p51 with and without RNase H; conditions: for RT/RNaseH cleavage of RNA2 (contains extended PPT): 10 nM 5'-labelled RNA2
Description: We used synthetic 5′-end-labelled RNA2, which contains the extended PPT and sequences of the viral genome close to the PPT. […] For the present study we used low concentrations of the ODNs.
as §1
(A) Cleavage assay. 10 nM of in vitro transcribed 5′-labeled RNA was hybridized with 10, 100 and 1000 nM of ODN A and incubated in the presence of RT/RNaseH. The cleavage products were analyzed by denaturing PAGE as described in Materials and methods. (B). Primer extension assay. Synthetic RNA2 was hybridized with ODN A, antisense primer (asEXT) or both primers combined, and the primer extension was performed as described in Materials and Methods. Elongation products were analysed by 8 M urea/10% PAGE. (C) Cleavage assay. RNA/ODN hybrids, obtained using 10 nM of RNA2 and 10 nM of ODN A, asPPT or ODN CO were incubated with RT/RNaseH and cleavage products were analyzed by denaturing PAGE as described in Materials and methods. Cleavage or extension products are presented schematically to the right of each blot. Cleavage sites are indicated by arrows and labelled cleavage products are shown by black lines. Dots on extension products indicate the incorporated labelled dATPs.

| Sequence | cleavage of synthetic SFFV PPT-RNA [1] | amount of intact SFFV RNA in virions (antiviral activity) (SFFV virions) | primer extension by RT/RNaseH compared to asEXT (RT/RNaseH [2]) | RT/RNaseH cleavage of RNA2 (contains extended PPT) (RT/RNaseH [3]; 10 nM ODN) | cleavage of RNA2 compared to control ODN CO (RT/RNaseH [3]; 10 nM RNA2, 10 nM ODN, FIG. 2C) | cleavage of RNA2 compared to single-stranded asPPT (RT/RNaseH [3]; 10 nM RNA2, 10 nM ODN, FIG. 2C) | RT/RNaseH cleavage of RNA2 (contains extended PPT) (RT/RNaseH [3]; 1 μM ODN) | ODN-mediated cleavage of RNA3 (no PPT sequence) (RT/RNaseH [3]; RNA3 without PPT) |
| --- | --- | --- | --- | --- | --- | --- | --- | --- |
| TCTTTTTGGGGGGTTTGTTTGTTTTTTCTTTCATTCCCCCCTTTTTCT (chemistry not given here) [ODN M, 22-mer antisense and 22-mer second strand connected by T4, targeted to extended PPT of SFFV] | cleaved | strongest effect | – | – | – | – | – | – |
| TTTTCTTTTGGGGGGTTTGGTTGGGTTTTCCCTTCCAGTCCCCCCTTTTCTTTT (phosphorothioate linkages, further chemistry not given here) [ODN A, 25 mer antisense and 25 mer passenger strand connected by T4, phosphorothioated at each end and in linker, targeted to extended PPT of HIV-1] | – | – | more efficiently | cleaved | more efficient cleavage | slightly stronger | not | not affected |
